Activity data for one compound are collected here from ChEMBL document CHEMBL4334471, “Discovery of 1,8-disubstituted-[1,2,3]triazolo[4,5-c]quinoline derivatives as a new class of Hippo signaling pathway inhibitors” (Bioorg Med Chem Lett, 2019).

Each structure is given as a SMILES string.

In assay [1] the target is Mitogen-activated protein kinase kinase kinase 5 (Homo sapiens) (UniProt Q99683). The assay can be described thus: Inhibition of recombinant human ASK1 (649 to 946 residues) assessed as residual activity at 10 uM using myelin basic protein as substrate incubated for 40 mins in presence of [gamma-33ATP] by scintillation counting based radiometry assay relative to control.

Assay [2] deals with Ephrin type-A receptor 8 (Homo sapiens) (UniProt P29322). In words: Inhibition of recombinant human EphA8 (615 to 911 residues) assessed as residual activity at 10 uM using KTFCGTPEYLAPEVRREPRILSEEEQEMFRDFDYIADWC as substrate at 40 mins in presence of [gamma-33ATP] by scintillation counting based radiometry assay relative to control.
The target of assay [3] is Transcription initiation factor TFIID subunit 1-like (Homo sapiens) (UniProt Q8IZX4). In words: Inhibition of recombinant human TAF1L (1428 to end residues) assessed as residual activity at 10 uM using RRRFRPASPLRGPPK as substrate incubated for 40 mins in presence of [gamma33P]ATP by scintillation counting based radiometry assay relative to control.
In assay [4] the test system is Hepatocyte growth factor receptor (Homo sapiens), P08581 [Y1230D]. The assay can be described thus: Inhibition of recombinant human MET A1209G/V1290L/Y1248D mutant (974 to end residues) assessed as residual activity at 10 uM using KKKGQEEEYVFIE as substrate incubated for 40 mins in presence of [gamma-33ATP by scintillation counting based radiometry assay relative to control.

Assay [5] deals with Serine/threonine-protein kinase PLK3 (Homo sapiens) (UniProt Q9H4B4). In words: Inhibition of recombinant human Plk3 (19 to 301 residues) assessed as residual activity at 10 uM using casein as substrate incubated for 40 mins in presence of [gamma33P]ATP by scintillation counting based radiometry assay relative to control.
The test system of assay [6] is Epidermal growth factor receptor (Homo sapiens), P00533 [L858R,T790M]. The assay can be described thus: Inhibition of recombinant human EGFR T790M/L858R mutant (696 to end residues) assessed as residual activity at 10 uM using poly(Glu, Tyr) 4:1 as substrate at 40 mins in presence of [gamma-33ATP] by scintillation counting based radiometry assay relative to control.

Assay [7] deals with cAMP-dependent protein kinase catalytic subunit alpha (Homo sapiens) (UniProt P17612). The assay can be described thus: Inhibition of recombinant human PKA assessed as residual activity at 10 uM relative to control.
For assay [8], the target named is Serine/threonine-protein kinase 25 (Homo sapiens) (UniProt O00506). The assay can be described thus: Inhibition of recombinant human STK25 (1 to 308 residues) assessed as residual activity at 10 uM using RLGRDKYKTLRQIRQ as substrate incubated for 40 mins in presence of [gamma33P]ATP by scintillation counting based radiometry assay relative to control.
Assay [9] addresses Non-receptor tyrosine-protein kinase TYK2 (Homo sapiens) (UniProt P29597). In words: Inhibition of recombinant human TYK2 (875 to end residues) assessed as residual activity at 10 uM using GGMEDIYFEFMGGKKK as substrate incubated for 40 mins in presence of [gamma33P]ATP by scintillation counting based radiometry assay relative to control.
In assay [10] the target is Calcium/calmodulin-dependent protein kinase type II subunit alpha (Homo sapiens) (UniProt Q9UQM7). The assay can be described thus: Inhibition of recombinant full length human CaMK2alpha assessed as residual activity at 10 uM using KKLNRTLSFAEPG as substrate incubated for 40 mins in presence of [gamma-33ATP] by scintillation counting based radiometry assay relative to control.

Assay [11] has as its target Platelet-derived growth factor receptor alpha (Homo sapiens) (UniProt P16234). The assay can be described thus: Inhibition of human PDGFRalpha (550 to end residues) assessed as residual activity at 10 uM using poly(Glu, Tyr) 4:1 as substrate measured after 40 mins in presence of [gamma33P]ATP by scintillation counting based radiometry assay relative to control.
Assay [12] addresses Inhibitor of nuclear factor kappa-B kinase subunit epsilon (Homo sapiens) (UniProt Q14164). The assay can be described thus: Inhibition of full length human IKKepsilon assessed as residual activity at 10 uM using peptide as substrate after 40 mins by [gamma-33ATP] radiometric assay relative to control.
In assay [13] the target is Ribosomal protein S6 kinase alpha-2 (Homo sapiens) (UniProt Q15349). In words: Inhibition of recombinant full length human Rsk3 assessed as residual activity at 10 uM using KKKNRTLSVA as substrate incubated for 40 mins in presence of [gamma33P]ATP by scintillation counting based radiometry assay relative to control.
Assay [14] relates to Hepatocyte growth factor receptor (Homo sapiens), P08581 [Y1230H]. In words: Inhibition of recombinant human MET A1209G/V1290L/Y1248H mutant (974 to end residues) assessed as residual activity at 10 uM using KKKGQEEEYVFIE as substrate incubated for 40 mins in presence of [gamma-33ATP by scintillation counting based radiometry assay relative to control.
Assay [15] has as its system PI3-kinase p110-alpha/p85-alpha (Homo sapiens), P27986+P42336 [E545K]. The assay can be described thus: Inhibition of recombinant full-length human PI3K p110/p85 E545K mutant assessed as residual activity at 10 uM using phosphatidylinositol-4, 5-bisphosphate as substrate incubated for 40 mins in presence of [gamma33P]ATP by scintillation counting based radiometry assay relative to control.

In assay [16] the target is Tyrosine-protein kinase FRK (Homo sapiens) (UniProt P42685). The assay can be described thus: Inhibition of recombinant human PTK5 (218 to end residues) assessed as residual activity at 10 uM using GGEEEEYFELVKKKK as substrate incubated for 40 mins in presence of [gamma33P]ATP by scintillation counting based radiometry assay relative to control.
Assay [17] has as its target Protein-tyrosine kinase 6 (Homo sapiens) (UniProt Q13882). In words: Inhibition of recombinant full length human BRK assessed as residual activity at 10 uM using poly(Glu, Tyr) 4:1 as substrate incubated for 40 mins in presence of [gamma-33ATP] by scintillation counting based radiometry assay relative to control.
Assay [18] has as its target Tyrosine-protein kinase Fyn (Homo sapiens) (UniProt P06241). In words: Inhibition of recombinant full length human Fyn assessed as residual activity at 10 uM using KVEKIGEGTYGVV as substrate at 40 mins in presence of [gamma-33ATP] by scintillation counting based radiometry assay relative to control.
In assay [19] the target is Mitogen-activated protein kinase kinase kinase 9 (Homo sapiens) (UniProt P80192). The assay can be described thus: Inhibition of recombinant human MLK1 (134 to 414 residues) assessed as residual activity at 10 uM using casein as substrate incubated for 40 mins in presence of [gamma-33ATP by scintillation counting based radiometry assay relative to control.
Assay [20] has as its system eIF-2-alpha kinase GCN2 (Homo sapiens), Q9P2K8 [E556G]. The assay can be described thus: Inhibition of recombinant full length human GCN2 E556G mutant assessed as residual activity at 10 uM using RSRSRSRSRSRSR as substrate at 40 mins in presence of [gamma-33ATP] by scintillation counting based radiometry assay relative to control.

Sequence of Mitogen-activated protein kinase kinase kinase 5 (Homo sapiens) (Q99683 whole entry, the tested form may be a part): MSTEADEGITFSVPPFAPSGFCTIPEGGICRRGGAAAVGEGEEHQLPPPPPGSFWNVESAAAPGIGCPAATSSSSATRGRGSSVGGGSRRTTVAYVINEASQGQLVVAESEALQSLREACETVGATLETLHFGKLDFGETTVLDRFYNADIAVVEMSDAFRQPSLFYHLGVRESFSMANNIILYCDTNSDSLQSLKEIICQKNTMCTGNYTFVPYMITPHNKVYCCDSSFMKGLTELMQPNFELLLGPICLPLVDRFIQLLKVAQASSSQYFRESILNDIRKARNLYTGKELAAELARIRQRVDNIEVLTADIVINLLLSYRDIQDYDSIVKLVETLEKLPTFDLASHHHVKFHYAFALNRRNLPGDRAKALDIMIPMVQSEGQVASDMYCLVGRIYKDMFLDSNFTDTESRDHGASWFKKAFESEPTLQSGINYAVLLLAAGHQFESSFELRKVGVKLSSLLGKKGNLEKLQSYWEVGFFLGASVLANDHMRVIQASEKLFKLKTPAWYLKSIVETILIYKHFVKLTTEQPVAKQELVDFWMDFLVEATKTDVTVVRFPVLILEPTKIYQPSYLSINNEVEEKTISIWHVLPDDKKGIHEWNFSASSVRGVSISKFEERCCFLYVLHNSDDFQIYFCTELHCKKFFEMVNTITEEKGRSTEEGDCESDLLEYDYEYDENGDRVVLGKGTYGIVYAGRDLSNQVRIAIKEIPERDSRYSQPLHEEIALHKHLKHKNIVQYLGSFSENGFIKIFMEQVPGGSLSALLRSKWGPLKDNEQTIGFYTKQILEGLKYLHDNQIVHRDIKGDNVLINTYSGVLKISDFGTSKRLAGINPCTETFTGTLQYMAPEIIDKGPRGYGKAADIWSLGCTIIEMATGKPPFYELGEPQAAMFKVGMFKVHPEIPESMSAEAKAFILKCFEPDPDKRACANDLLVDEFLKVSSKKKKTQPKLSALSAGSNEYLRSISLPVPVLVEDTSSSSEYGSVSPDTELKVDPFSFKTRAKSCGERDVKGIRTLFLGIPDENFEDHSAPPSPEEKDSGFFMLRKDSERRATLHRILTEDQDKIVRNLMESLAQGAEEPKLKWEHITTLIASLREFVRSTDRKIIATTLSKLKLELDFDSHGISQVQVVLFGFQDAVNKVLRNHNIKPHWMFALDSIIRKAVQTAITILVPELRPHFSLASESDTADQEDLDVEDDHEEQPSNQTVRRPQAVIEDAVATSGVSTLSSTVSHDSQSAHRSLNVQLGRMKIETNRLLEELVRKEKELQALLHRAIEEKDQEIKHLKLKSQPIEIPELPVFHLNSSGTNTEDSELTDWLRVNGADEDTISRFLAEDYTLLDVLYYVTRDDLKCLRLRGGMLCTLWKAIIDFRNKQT
Sequence of Protein-tyrosine kinase 6 (Homo sapiens) (Q13882 whole entry, looked up): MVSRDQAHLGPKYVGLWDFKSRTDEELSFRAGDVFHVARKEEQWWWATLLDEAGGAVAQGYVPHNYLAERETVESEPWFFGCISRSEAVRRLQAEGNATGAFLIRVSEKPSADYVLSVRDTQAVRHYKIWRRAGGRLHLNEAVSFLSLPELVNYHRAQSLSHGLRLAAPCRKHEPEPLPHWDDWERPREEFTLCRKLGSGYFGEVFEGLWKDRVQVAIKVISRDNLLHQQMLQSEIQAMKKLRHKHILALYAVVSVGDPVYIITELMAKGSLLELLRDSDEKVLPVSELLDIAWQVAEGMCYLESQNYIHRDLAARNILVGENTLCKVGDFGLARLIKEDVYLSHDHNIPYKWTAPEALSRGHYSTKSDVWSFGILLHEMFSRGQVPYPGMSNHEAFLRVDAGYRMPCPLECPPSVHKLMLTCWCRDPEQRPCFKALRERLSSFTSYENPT
Sequence of Ephrin type-A receptor 8 (Homo sapiens) (P29322 whole entry, the tested form may be a part): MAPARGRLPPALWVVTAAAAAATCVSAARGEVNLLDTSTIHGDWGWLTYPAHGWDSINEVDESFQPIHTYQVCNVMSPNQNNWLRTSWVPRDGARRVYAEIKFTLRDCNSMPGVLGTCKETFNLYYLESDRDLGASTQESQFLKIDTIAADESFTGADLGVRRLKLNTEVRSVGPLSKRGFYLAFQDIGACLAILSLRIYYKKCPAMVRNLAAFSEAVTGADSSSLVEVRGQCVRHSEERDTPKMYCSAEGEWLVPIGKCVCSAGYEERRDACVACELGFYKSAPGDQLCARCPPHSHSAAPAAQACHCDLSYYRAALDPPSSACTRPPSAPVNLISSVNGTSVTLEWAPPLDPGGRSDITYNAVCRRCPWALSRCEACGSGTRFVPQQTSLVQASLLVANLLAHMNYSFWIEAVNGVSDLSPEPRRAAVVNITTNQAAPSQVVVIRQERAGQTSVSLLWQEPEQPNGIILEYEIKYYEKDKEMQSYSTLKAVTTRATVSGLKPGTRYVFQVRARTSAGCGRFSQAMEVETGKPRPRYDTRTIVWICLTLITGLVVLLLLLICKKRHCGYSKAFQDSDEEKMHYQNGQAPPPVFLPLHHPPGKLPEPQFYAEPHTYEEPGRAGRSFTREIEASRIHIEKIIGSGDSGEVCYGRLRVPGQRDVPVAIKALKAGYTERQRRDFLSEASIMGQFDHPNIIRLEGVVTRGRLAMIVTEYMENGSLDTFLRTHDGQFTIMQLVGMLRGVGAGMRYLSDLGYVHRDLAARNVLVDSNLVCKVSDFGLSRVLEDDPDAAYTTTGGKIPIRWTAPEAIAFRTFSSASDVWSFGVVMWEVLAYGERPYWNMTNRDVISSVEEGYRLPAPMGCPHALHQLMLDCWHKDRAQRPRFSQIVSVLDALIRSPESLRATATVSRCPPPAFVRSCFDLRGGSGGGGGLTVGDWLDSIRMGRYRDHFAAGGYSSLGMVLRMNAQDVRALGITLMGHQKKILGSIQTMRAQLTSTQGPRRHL
Sequence of Transcription initiation factor TFIID subunit 1-like (Homo sapiens) (Q8IZX4 whole entry): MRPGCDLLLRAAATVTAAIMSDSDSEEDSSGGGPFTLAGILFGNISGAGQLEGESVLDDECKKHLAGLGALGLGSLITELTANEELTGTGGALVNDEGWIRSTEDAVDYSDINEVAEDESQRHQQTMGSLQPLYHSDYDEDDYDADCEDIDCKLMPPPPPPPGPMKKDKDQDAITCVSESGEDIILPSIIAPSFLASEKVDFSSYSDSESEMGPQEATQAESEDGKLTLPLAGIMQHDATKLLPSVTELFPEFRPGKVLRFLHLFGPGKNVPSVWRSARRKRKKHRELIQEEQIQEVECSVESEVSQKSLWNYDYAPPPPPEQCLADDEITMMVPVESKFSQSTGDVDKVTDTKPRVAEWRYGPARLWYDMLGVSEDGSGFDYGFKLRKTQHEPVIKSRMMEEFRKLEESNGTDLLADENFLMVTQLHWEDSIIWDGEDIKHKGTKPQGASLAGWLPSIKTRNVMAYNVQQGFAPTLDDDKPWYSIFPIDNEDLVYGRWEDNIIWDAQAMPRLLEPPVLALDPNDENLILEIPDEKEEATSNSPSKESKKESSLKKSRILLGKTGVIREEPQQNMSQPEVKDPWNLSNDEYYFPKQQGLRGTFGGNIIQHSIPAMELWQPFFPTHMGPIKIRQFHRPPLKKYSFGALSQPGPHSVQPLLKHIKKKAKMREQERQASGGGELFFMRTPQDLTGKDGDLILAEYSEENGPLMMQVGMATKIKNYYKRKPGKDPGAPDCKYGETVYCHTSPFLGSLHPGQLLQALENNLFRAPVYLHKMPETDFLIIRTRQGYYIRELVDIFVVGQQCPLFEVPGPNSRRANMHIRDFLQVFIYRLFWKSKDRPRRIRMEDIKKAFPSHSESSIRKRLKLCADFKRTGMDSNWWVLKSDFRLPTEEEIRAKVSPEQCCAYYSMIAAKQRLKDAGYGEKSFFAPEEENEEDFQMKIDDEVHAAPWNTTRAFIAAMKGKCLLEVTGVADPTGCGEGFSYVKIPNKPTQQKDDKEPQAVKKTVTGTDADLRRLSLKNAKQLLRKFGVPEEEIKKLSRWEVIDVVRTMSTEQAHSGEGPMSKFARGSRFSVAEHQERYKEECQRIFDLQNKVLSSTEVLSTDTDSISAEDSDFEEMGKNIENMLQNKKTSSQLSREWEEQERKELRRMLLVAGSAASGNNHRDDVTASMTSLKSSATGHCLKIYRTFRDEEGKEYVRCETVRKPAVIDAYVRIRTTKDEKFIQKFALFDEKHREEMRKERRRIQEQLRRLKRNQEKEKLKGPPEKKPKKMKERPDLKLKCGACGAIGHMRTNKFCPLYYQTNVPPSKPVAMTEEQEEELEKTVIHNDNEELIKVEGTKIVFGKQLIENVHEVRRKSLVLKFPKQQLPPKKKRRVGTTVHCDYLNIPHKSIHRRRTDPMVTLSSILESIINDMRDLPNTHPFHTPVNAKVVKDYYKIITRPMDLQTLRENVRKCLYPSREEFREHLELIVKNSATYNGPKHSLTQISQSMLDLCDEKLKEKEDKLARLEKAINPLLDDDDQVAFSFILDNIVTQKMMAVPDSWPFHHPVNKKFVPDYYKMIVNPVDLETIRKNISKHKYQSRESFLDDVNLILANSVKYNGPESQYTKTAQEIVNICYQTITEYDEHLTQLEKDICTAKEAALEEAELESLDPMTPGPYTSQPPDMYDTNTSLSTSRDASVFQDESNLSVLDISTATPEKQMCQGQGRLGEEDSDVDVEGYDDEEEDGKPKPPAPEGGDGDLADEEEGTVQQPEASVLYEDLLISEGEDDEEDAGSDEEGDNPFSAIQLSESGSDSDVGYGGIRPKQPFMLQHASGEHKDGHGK
Sequence of Serine/threonine-protein kinase 25 (Homo sapiens) (O00506 whole entry, looked up, the tested form may be a part): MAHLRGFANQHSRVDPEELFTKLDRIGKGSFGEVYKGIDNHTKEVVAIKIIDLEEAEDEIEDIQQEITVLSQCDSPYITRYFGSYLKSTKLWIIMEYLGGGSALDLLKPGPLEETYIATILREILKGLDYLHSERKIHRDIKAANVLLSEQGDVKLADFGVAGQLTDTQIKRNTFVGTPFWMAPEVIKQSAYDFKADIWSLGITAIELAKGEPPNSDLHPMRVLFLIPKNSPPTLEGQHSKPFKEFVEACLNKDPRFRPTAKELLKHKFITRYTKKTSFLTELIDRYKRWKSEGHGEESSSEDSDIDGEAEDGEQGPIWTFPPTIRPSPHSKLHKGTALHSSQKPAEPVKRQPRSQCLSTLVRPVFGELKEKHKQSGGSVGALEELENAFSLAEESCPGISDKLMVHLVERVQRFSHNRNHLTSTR

Take `C[C@@H](c1ccccc1)n1nnc2cnc3ccc(-c4cnc5[nH]ccc5c4)cc3c21`: the Activity in assay [1] is 58%; in [2] it was 73%; in assay [3], 85%; in assay [4] it was 70%; in assay [5], 71%; in assay [6] it was 57%. Moreover, the Activity in [7] is 82%; in assay [8], 76%; in [9], 60%; in [10], 50%; in [11], 95%; in assay [12], 94%. Also, the Activity turned out to be 93% in assay [13]; 79% in [14]; 2% in assay [15]; 7% in assay [16]; 21% in assay [17]; 8% in [18]. The Activity in [19] is 41%; in [20] it was 93%.
